Test results reported in patent publication US11214578B2, “Urea/carbamates FAAH MAGL or dual FAAH/MAGL inhibitors and uses thereof” (Northeastern University, priority 2014, dated 2022).

Legend:
ΔTM rat FAAH = target: T1, ΔTM rat FAAH (Rattus norvegicus, UniProt P97612); experiment: Fluorescent assay protocol for ΔTM rat FAAH (AAMCA substrate); type: biochemical; conditions: 15 min preincubation, read-out: IC50 rFAAH
T1 construct: Preparation of Transmembrane Domain-Deleted Rat FAAH (ΔTM rFAAH); made in house; host or cells: E. coli
T1 sequence (P97612 30-579 limits assumed): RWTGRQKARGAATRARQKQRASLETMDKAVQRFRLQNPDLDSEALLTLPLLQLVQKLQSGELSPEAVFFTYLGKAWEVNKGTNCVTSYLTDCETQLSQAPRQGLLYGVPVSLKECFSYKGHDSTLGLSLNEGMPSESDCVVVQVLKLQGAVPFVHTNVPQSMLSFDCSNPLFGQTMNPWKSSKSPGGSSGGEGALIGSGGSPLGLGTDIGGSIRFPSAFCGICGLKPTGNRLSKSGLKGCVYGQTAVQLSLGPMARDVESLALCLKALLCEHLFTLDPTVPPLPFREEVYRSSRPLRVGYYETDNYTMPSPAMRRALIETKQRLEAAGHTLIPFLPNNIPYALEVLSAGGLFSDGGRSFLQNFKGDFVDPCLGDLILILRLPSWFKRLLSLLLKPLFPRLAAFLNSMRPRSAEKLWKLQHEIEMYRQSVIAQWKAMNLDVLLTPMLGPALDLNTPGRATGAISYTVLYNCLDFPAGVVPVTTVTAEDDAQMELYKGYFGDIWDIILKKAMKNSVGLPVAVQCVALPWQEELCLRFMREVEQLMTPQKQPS
Outline: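 ΔTM rat FAAH (15 μg) was pre-incubated 15 min at 25° C with compound (screening at 1, 10 and 100 μM), then reacted with the fluorigenic substrate AAMCA. Percent inhibition came from fluorescence at 3 h (linear kinetics) relative to no-inhibitor controls, in triplicate.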

Rat MAGL (rMAGL) = target: T2, Rat MAGL (rMAGL) (Rattus norvegicus, UniProt Q8R431); experiment: Fluorescent assay protocol for rMAGL; type: biochemical; conditions: recombinant rat MAGL, procedure as for hMAGL; read-out: IC50 rMAGL
T2 construct: made in house; host or cells: E. coli
T2 sequence (Q8R431 1-303): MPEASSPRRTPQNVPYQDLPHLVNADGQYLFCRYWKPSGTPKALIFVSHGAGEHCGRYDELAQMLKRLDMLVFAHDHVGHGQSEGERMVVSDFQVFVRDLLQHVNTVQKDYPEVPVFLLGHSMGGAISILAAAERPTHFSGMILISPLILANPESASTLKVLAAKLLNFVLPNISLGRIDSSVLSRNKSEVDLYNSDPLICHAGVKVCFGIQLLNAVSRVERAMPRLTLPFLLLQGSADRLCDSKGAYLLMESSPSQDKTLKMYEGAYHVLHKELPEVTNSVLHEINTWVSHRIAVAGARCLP
Outline: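 Rat MAGL run as for the human enzyme: AHMMCE substrate hydrolysis to fluorescent coumarin followed at 25° C. for 120 min, read every 15 min at 360/460 nm.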

Human FAAH (MBPΔTMhFAAH) = target: T3, Human FAAH (MBPΔTMhFAAH) (Homo sapiens, UniProt O00519); experiment: Fluorescent assay protocol for hFAAH; type: biochemical; conditions: human FAAH (MBP fusion, ΔTM), procedure as for rFAAH
T3 construct: made in house; host or cells: E. coli (pMALcE4 vector)
T3 sequence (O00519 30-579 limits assumed): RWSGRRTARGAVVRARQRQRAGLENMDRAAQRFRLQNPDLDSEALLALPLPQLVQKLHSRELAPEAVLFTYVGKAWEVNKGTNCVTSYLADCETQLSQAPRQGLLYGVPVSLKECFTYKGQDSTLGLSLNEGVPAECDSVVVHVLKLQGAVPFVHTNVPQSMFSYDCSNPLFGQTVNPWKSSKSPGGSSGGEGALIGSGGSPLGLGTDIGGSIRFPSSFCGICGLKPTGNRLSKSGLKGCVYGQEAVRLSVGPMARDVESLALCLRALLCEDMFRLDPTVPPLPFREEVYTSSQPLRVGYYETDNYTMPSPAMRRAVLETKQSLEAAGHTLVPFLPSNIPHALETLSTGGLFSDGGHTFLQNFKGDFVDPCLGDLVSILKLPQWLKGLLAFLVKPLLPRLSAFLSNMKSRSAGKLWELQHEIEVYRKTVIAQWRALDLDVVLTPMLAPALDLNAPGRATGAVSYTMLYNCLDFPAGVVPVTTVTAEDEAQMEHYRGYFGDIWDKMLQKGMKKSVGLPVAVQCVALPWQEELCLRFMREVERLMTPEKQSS
Outline: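 MBP-fused ΔTM human FAAH from E. coli, pre-incubated 15 min at 25 °C with compound in 50 mM HEPES, 1 mM EDTA, 0.1% BSA, pH 7.4 (DMSO below 8%). Substrate AAMCA 20 μM (2×Km); fluorescence (ex 360/em 460) at 3 h gave % inhibition vs uninhibited control, triplicate, IC50 fitted.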

[1] = Blood brain barrier (BBB) permeability studies; conditions: brain and plasma; blood-brain distribution, in vivo; read-out: brain/plasma ratio
Excerpt: Novel compounds were studied for their abilities to cross the blood brain barrier based on procedures adapted from Cluny, et al (2010), British journal of pharmacology 161: 629; Rahn, et al (2011) Pharmacology biochemistry, and behavior 98: 493; Wood et al (2013) Life sciences 92: 482.

Human MAGL (hMAGL) = target: T4, Human MAGL (hMAGL) (Homo sapiens, UniProt Q99685); experiment: Fluorescent assay protocol for hMAGL (AHMMCE substrate); type: biochemical; conditions: recombinant human MAGL, AHMMCE substrate, 15 min preincubation; read-out: IC50 hMAGL
T4 construct: hexahistidine; made in house; host or cells: E. coli
T4 sequence (Q99685 1-303): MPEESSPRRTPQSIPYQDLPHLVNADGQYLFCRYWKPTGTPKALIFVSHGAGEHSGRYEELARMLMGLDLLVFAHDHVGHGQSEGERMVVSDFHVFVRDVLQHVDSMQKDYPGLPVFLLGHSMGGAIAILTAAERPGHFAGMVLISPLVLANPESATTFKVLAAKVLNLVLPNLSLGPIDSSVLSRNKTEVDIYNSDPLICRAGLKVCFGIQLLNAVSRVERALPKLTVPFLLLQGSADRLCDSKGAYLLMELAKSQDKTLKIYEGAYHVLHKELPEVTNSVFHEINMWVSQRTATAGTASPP
Outline: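 Hydrolysis of AHMMCE by human MAGL was monitored at 25°C for 120 min, with fluorescence at 360/460 nm recorded every 15 min and converted to 4-methylcoumarin using external standards. IC50 values were derived from triplicate wells at each inhibitor concentration.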

[2] = test system: human prostate cancer PC-3M cells; experiment: Xenograft model of advanced prostate cancer; type: in vivo, mouse; conditions: nude mice, PC-3M xenograft, 20 mg/kg daily i.p. for 21 days
Description: Compounds were studied for their abilities to retard tumor growth in mouse xenograft model expressing aggressive human prostate cancer PC-3M cells. Tumors were established in immunodeficient nude mice (Taconic Farms) according to standard protocol and mice were divided in two groups. Mouse in each group was injected intraperitoneally (i.p.) with vehicle or compounds (20 mg/kg daily) for 21 days. Tumor sizes were measured with callipers every 3 days.

[3] = test system: LiCl-induced anticipatory nausea in rats; experiment: Anticipatory nausea studies (LiCl-paired context, gapes); type: in vivo, rat; conditions: for amelioration of LiCl-induced anticipatory nausea: 20 mg/Kg; for Mean number of gapes elicited by a LiCl-paired context: 20 mg/Kg pretreatment, vehicle 22 gapes
Excerpt: Novel compounds were studied for their ability to ameliorate LiCl-induced anticipatory nausea in rats following the procedures described in Limebeer, C. L. et al Psychopharmacology (2014) 231:603-612. […] Mean number of gapes elicited by a LiCl-paired context in an anticipatory nausea test following pretreatment with a MAGL inhibitor compound 46 and dual FAAH/MAGL inhibitor 52 were 8 and 3 respectively, compared to animals treated with vehicle which show 22 gapes.

Row | Structure (SMILES) | IC50 (ΔTM rat FAAH) [nM] | IC50 (Rat MAGL (rMAGL)) [nM] | IC50 (Human FAAH (MBPΔTMhFAAH)) [nM] | Kp [1] | IC50 (Human MAGL (hMAGL)) [nM] | reduction in tumor sizes ([2]; compared to vehicle) [%] | tumor sizes ([2]; vehicle 185 mm^3) [mm^3] | amelioration of LiCl-induced anticipatory nausea [3] | Mean number of gapes elicited by a LiCl-paired context [3]
1 | C[C@H]1CN(C(=O)Nc2cccc(-c3cccc(C(N)=O)c3)c2)CCN1Cc1ccc2ccccc2n1 [Example 1, (S)—N-(3′-carbamoyl-[1,1′-biphenyl]-3-yl)-3-methyl-4-(quinolin-2-ylmethyl) piperazine-1-carboxamide] | 10 to 100 | > 1000 | 10 to 100 | 0.03 | > 1000 | – | – | – | –
2 | NC(=O)c1cccc(-c2cccc(NC(=O)N3CCC(c4ccccc4)CC3)c2)c1 [Example 7, N-(3′-carbamoyl-[1,1′-biphenyl]-3-yl)-4-phenylpiperidine-1-carboxamide] | 10 to 100 | > 1000 | 10 to 100 | 0.17 | > 1000 | – | – | – | –
3 | O=C(N1C[C@@H]2C[C@H]1CN2Cc1cccc(-c2ccccc2)c1)n1cnc(Br)c1 [Example 100, ((1S,4S)-5-([1,1′-biphenyl]-3-ylmethyl)-2,5-diazabicyclo[2.2.1]heptan-2-yl)(4-bromo-1H-imidazol-1-yl)methanone] | 10 to 100 | > 1000 | 10 to 100 | – | > 1000 | – | – | – | –
4 | O=C(Oc1ccccc1)N1C[C@@H]2C[C@H]1CN2Cc1cccc(-c2ccccc2)c1 [Example 101, phenyl (1S,4S)-5-([1,1′-biphenyl]-3-ylmethyl)-2,5-diazabicyclo[2.2.1]heptane-2-carboxylate] | 10 to 100 | > 1000 | 10 to 100 | – | > 1000 | – | – | – | –

Now from value to molecule, other results behind:

Row | IC50 (ΔTM rat FAAH) [nM] | IC50 (Rat MAGL (rMAGL)) [nM] | IC50 (Human FAAH (MBPΔTMhFAAH)) [nM] | Kp [1] | IC50 (Human MAGL (hMAGL)) [nM] | Structure (SMILES) | reduction in tumor sizes ([2]; compared to vehicle) [%] | tumor sizes ([2]; vehicle 185 mm^3) [mm^3] | amelioration of LiCl-induced anticipatory nausea [3] | Mean number of gapes elicited by a LiCl-paired context [3]
5 | 10 to 100 | – | 10 to 100 | – | – | N#Cc1cccc(OC(=O)N2CCC(C(c3ccccc3)c3ccccc3)CC2)c1 [Example 46, 3-Cyanophenyl 4-benzhydrylpiperidine-1-carboxylate] | 43 | 105 | ameliorated anticipatory nausea | 8
6 | – | – | 10 to 100 | 0.71 | – | N#Cc1cccc(OC(=O)N2CCC(Cc3ccccc3)CC2)c1 [Example 52, 3-cyanophenyl 4-benzylpiperidine-1-carboxylate] | – | – | ameliorated anticipatory nausea | 3
